The NIST ThermoML archive (doi:10.1021/je0342320)

Assay: xn = mol fraction of the nth substance listed
Settings: Liquid, Vibrating tube method

CCCCCCCCCC [decane] + COC(=O)OC
mass density [kg/m3]
Settings | 100 kPa | 10000 kPa | 20000 kPa | 30000 kPa | 40000 kPa
288.15 K, x2 = 0.0676 | 741.97 | 749.1 | 755.73 | 761.88 | 767.71
288.15 K, x2 = 0.2303 | 767.95 | 775.45 | 782.4 | 788.87 | 794.93
288.15 K, x2 = 0.2934 | 780.23 | 787.82 | 794.87 | 801.43 | 807.54
288.15 K, x2 = 0.4055 | 804.52 | 812.34 | 819.59 | 826.32 | 832.65
288.15 K, x2 = 0.502 | 829.72 | 837.73 | 844.78 | – | –
288.15 K, x2 = 0.5476 | 843.28 | 851.4 | – | – | –
288.15 K, x2 = 0.665 | 883.8 | – | – | – | –
288.15 K, x2 = 0.7101 | 901.71 | – | – | – | –
288.15 K, x2 = 0.9062 | 1004.68 | 1013.19 | 1021.19 | 1028.63 | 1035.61
293.15 K, x2 = 0.0676 | 738.16 | 745.45 | 752.25 | 758.56 | 764.48
293.15 K, x2 = 0.2303 | 763.84 | 771.54 | 778.69 | 785.31 | 791.49
293.15 K, x2 = 0.2934 | 775.99 | 783.79 | 791.01 | 797.71 | 803.97
293.15 K, x2 = 0.4055 | 799.94 | 807.99 | 815.46 | 822.34 | 828.8
293.15 K, x2 = 0.502 | 824.83 | 833.07 | 840.72 | 847.8 | 854.44
293.15 K, x2 = 0.5476 | 838.17 | 846.56 | 854.35 | 861.57 | 868.38
293.15 K, x2 = 0.5883 | 851.08 | 859.46 | 867.28 | 874.53 | –
293.15 K, x2 = 0.665 | 878.01 | 886.63 | 894.64 | 902.11 | –
293.15 K, x2 = 0.7101 | 896.39 | 905.11 | 913.24 | 920.82 | –
293.15 K, x2 = 0.7993 | 936.74 | 945.44 | 953.46 | – | –
293.15 K, x2 = 0.9062 | 998.35 | 1007.19 | 1015.43 | 1023.08 | 1030.28
298.15 K, x2 = 0.0676 | 734.31 | 741.8 | 748.75 | 755.23 | 761.28
298.15 K, x2 = 0.2303 | 759.7 | 767.62 | 774.95 | 781.73 | 788.05
298.15 K, x2 = 0.2934 | 771.64 | 779.68 | 787.1 | – | 800.4
298.15 K, x2 = 0.4055 | 795.37 | 803.65 | 811.3 | 818.38 | 825
298.15 K, x2 = 0.502 | 819.95 | 828.44 | 836.29 | 843.57 | 850.35
298.15 K, x2 = 0.5476 | 833.19 | 841.77 | 849.77 | 857.18 | 864.11
298.15 K, x2 = 0.5883 | 845.93 | 854.59 | 862.62 | 870.04 | 876.98
298.15 K, x2 = 0.665 | 872.69 | 881.52 | 889.73 | 897.31 | 904.39
298.15 K, x2 = 0.7101 | 890.82 | 899.75 | 908.1 | 915.87 | 923.09
298.15 K, x2 = 0.7993 | 930.88 | 939.91 | 948.28 | 956.06 | –
298.15 K, x2 = 0.9062 | 992.18 | 1001.24 | 1009.74 | 1017.62 | 1025.01
303.15 K, x2 = 0.0676 | 730.48 | 738.15 | 745.3 | 751.9 | 758.05
303.15 K, x2 = 0.2303 | 755.57 | 763.68 | 771.21 | 778.15 | 784.61
303.15 K, x2 = 0.2934 | 767.36 | 775.58 | 783.23 | 790.27 | 796.82
303.15 K, x2 = 0.4055 | 790.78 | 799.32 | 807.2 | 814.45 | 821.19
303.15 K, x2 = 0.502 | 815.09 | 823.86 | 831.94 | 839.39 | 846.29
303.15 K, x2 = 0.5476 | 828.19 | 837.03 | 845.25 | 852.82 | 859.91
303.15 K, x2 = 0.5883 | 840.82 | 849.74 | 858.02 | 865.63 | 872.72
303.15 K, x2 = 0.665 | 867.33 | 876.43 | 884.86 | 892.63 | 899.87
303.15 K, x2 = 0.7101 | 885.21 | 894.46 | 903.07 | 911.02 | 918.42
303.15 K, x2 = 0.7993 | 925.09 | 934.41 | 943.03 | 951.01 | 958.41
303.15 K, x2 = 0.9062 | 985.93 | 995.33 | 1004.09 | 1012.2 | 1019.78
308.15 K, x2 = 0.0676 | 726.53 | 734.45 | 741.78 | – | –
308.15 K, x2 = 0.2303 | 751.35 | 759.73 | 767.45 | – | –
308.15 K, x2 = 0.2934 | 763 | 771.51 | 779.37 | – | –
308.15 K, x2 = 0.4055 | 786.2 | 794.99 | 803.1 | – | –
308.15 K, x2 = 0.502 | 810.29 | 819.3 | – | – | –
308.15 K, x2 = 0.5476 | 823.17 | 832.33 | – | – | –
308.15 K, x2 = 0.5883 | 835.71 | 844.95 | – | – | –
308.15 K, x2 = 0.665 | 861.96 | 871.37 | – | – | –
308.15 K, x2 = 0.7101 | 879.57 | 889.19 | – | – | –
308.15 K, x2 = 0.7993 | 919.3 | 928.93 | – | – | –
308.15 K, x2 = 0.9062 | 979.75 | 989.47 | – | – | –
